Where “and” joins values, the source holds several entries; their conditions need not be identical. Identical values can stand only once. Toxic doses and inconclusive results are not listed. Rule for the calls: active = survival T/C of 150% or more; inactive = T/C below 125% in these data.
System: CD2F1 mice, L1210 leukemia ip, survival T/C
Assay: NCI In Vivo Anticancer Drug Screen. Data for tumor model L1210 Leukemia (intraperitoneal) in CD2F1 (CDF1) mice
Settings: higher = longer survival
Outline: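 Antitumor effect is scored in animals hosting a serially transplanted tumor. Values compare compound-dosed animals against vehicle-only controls as a simple quotient.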

[1] = endpoint: mean survival time, dose: 100.0 mg/kg/injection, schedule: Q04DX003 (ip), vehicle: saline with Tween-80
[2] = endpoint: mean survival time, dose: 100.0 mg/kg/injection, schedule: Q01DX009 (ip), vehicle: saline with Tween-80
[3] = endpoint: mean survival time, dose: 200.0 mg/kg/injection, schedule: Q01DX009 (ip), vehicle: saline with Tween-80
[4] = endpoint: mean survival time, dose: 200.0 mg/kg/injection, schedule: Q04DX003 (ip), vehicle: saline with Tween-80
[5] = endpoint: mean survival time, dose: 400.0 mg/kg/injection, schedule: Q01DX009 (ip), vehicle: saline with Tween-80
[6] = endpoint: mean survival time, dose: 400.0 mg/kg/injection, schedule: Q04DX003 (ip), vehicle: saline with Tween-80

Measured: T/C

CCOC(=O)C(CCC(=O)OC)(CCC(=O)OC)C(=O)OCC
inactive: endpoint: mean survival time, dose: 100.0 mg/kg/injection, schedule: Q01DX005 (ip), vehicle: other 95 % of control | endpoint: mean survival time, dose: 100.0 mg/kg/injection, schedule: Q01DX009 (ip), vehicle: other 101 % of control | endpoint: mean survival time, dose: 100.0 mg/kg/injection, schedule: Q04DX002 (ip), vehicle: other 88 % of control | endpoint: mean survival time, dose: 200.0 mg/kg/injection, schedule: Q01DX005 (ip), vehicle: other 91 % of control | endpoint: mean survival time, dose: 200.0 mg/kg/injection, schedule: Q01DX009 (ip), vehicle: other 97 % of control | endpoint: mean survival time, dose: 200.0 mg/kg/injection, schedule: Q04DX002 (ip), vehicle: other 92 % of control | endpoint: mean survival time, dose: 400.0 mg/kg/injection, schedule: Q01DX005 (ip), vehicle: other 91 % of control | endpoint: mean survival time, dose: 400.0 mg/kg/injection, schedule: Q01DX009 (ip), vehicle: other 86 % of control | endpoint: mean survival time, dose: 400.0 mg/kg/injection, schedule: Q04DX002 (ip), vehicle: other 95 % of control

COC1=CCC23C(=O)C=CC(=O)C2(C1)C(=O)c1ccccc1C3=O (centres undefined)
inactive: endpoint: median survival time, dose: 3.12 mg/kg/injection, schedule: Q01DX009 (ip), vehicle: saline with Tween-80 102 % of control | endpoint: median survival time, dose: 6.25 mg/kg/injection, schedule: Q01DX009 (ip), vehicle: saline with Tween-80 105 % of control | endpoint: median survival time, dose: 12.5 mg/kg/injection, schedule: Q01DX009 (ip), vehicle: saline with Tween-80 112 % of control | endpoint: median survival time, dose: 25.0 mg/kg/injection, schedule: Q01DX009 (ip), vehicle: saline with Tween-80 104 % of control

CC(=O)N(C1=CC(=O)c2ccccc2C1=O)c1ccc(C)cc1
inactive: endpoint: mean survival time, dose: 75.0 mg/kg/injection, schedule: Q01DX001 (ip), vehicle: saline 100 % of control | endpoint: mean survival time, dose: 150.0 mg/kg/injection, schedule: Q01DX001 (ip), vehicle: saline 100 % of control

CN(C)Cc1cc(C(C)(C)CC(C)(C)C)cc(CN(C)C)c1O
inactive: endpoint: mean survival time, dose: 25.0 mg/kg/injection, schedule: Q04DX003 (ip), vehicle: saline with Tween-80 98 % of control | endpoint: mean survival time, dose: 50.0 mg/kg/injection, schedule: Q04DX003 (ip), vehicle: saline with Tween-80 100 % of control | [1] 96 % of control and 97 % of control

CCOC(=O)c1c(Cl)nc2ccccc2c1Cl
inactive: endpoint: mean survival time, dose: 50.0 mg/kg/injection, schedule: Q01DX009 (ip), vehicle: saline with Tween-80 105 % of control | [2] 105 % of control | [3] 94 % of control

CCOC(=O)c1cc(-c2ccccc2)nc2c(Cl)cc(Cl)cc12
inactive: endpoint: mean survival time, dose: 100.0 mg/kg/injection, schedule: Q01DX001 (ip), vehicle: saline 94 % of control | endpoint: mean survival time, dose: 200.0 mg/kg/injection, schedule: Q01DX001 (ip), vehicle: saline 90 % of control | endpoint: mean survival time, dose: 400.0 mg/kg/injection, schedule: Q01DX001 (ip), vehicle: saline 96 % of control

OCc1c(Cl)cccc1Cl
inactive: endpoint: mean survival time, dose: 100.0 mg/kg/injection, schedule: Q01DX001 (ip), vehicle: saline with Tween-80 104 % of control | [2] 96 % of control and 102 % of control | endpoint: mean survival time, dose: 100.0 mg/kg/injection, schedule: Q04DX002 (ip), vehicle: saline with Tween-80 97 % of control and 105 % of control | [1] 103 % of control | endpoint: mean survival time, dose: 200.0 mg/kg/injection, schedule: Q01DX001 (ip), vehicle: saline with Tween-80 102 % of control | [3] 95 % of control and 96 % of control | endpoint: mean survival time, dose: 200.0 mg/kg/injection, schedule: Q04DX002 (ip), vehicle: saline with Tween-80 97 % of control and 112 % of control | [4] 113 % of control | endpoint: mean survival time, dose: 400.0 mg/kg/injection, schedule: Q01DX001 (ip), vehicle: saline with Tween-80 107 % of control | [5] 101 % of control and 104 % of control | endpoint: mean survival time, dose: 400.0 mg/kg/injection, schedule: Q04DX002 (ip), vehicle: saline with Tween-80 101 % of control and 109 % of control | [6] 103 % of control

CC(=O)OCC1CCC1
inactive: [2] 95 % of control | [3] 95 % of control | [5] 103 % of control

Cc1ccc2nc(C(F)(F)F)cc(NN)c2c1
inactive: [2] 100 % of control | [1] 101 % of control | [3] 94 % of control | [4] 96 % of control | [5] 100 % of control | [6] 98 % of control

Nc1ccc2ccccc2c1N=Nc1ccccc1
inactive: endpoint: mean survival time, dose: 50.0 mg/kg/injection, schedule: Q01DX009 (ip), vehicle: Klucel (hydroxypropylcellulose) (HPC) 106 % of control | endpoint: mean survival time, dose: 100.0 mg/kg/injection, schedule: Q01DX009 (ip), vehicle: Klucel (hydroxypropylcellulose) (HPC) 112 % of control | endpoint: mean survival time, dose: 200.0 mg/kg/injection, schedule: Q01DX009 (ip), vehicle: Klucel (hydroxypropylcellulose) (HPC) 113 % of control | endpoint: mean survival time, dose: 400.0 mg/kg/injection, schedule: Q01DX009 (ip), vehicle: Klucel (hydroxypropylcellulose) (HPC) 103 % of control

From PubChem BioAssay AID256 (DTP/NCI, 2004)
